Measurements published in patent US5444049A, “Peptide compounds derived from boronic acid” (Adir et Compagnie, priority 1993, dated 1995).

Columns and labels:
dogs [1] = assay: Thrombopenia p.o. in dogs, platelet count; assay type: in vivo, dog; details: 2.5 mg/kg orally
Method: (§1) The products were administered orally to dogs.2 hours and 4 hours after the treatment, and blood was withdrawn via the intravenous route. The plasma is prepared, platelets counted and the thrombin time test is carried out.

[2] = target: T1, purified human activated protein C (Homo sapiens, UniProt P04070); assay: Inhibition of activated protein C; assay type: biochemical; details: substrate S 2366
T1 construct: purchased Stago
Method: (§2) To evaluate in vitro the selectivity of these products with respect to different serine proteases of fibrinolysis and of coagulation, the same protocol was applied to purified human plasmin (2 nM, Stago), to purified human activated protein C (2 nM, Stago), to purified human activated factor X (2 nM, Stago), to tissue plasminogen activator (2 nM, Calbiochem), to purified human urokinase (2 nM, Sigma) and to purified human plasma kallikrein (2 nM, Calbiochem), using different peptidyl para-nitroanilides as substrate: <Glu-Phe-Lys-pNA (0.50 mM, S 2403, Kabi) for plasmin, N-Cbo-Arg-Gly-Arg-pNA (0.38 mM, S 2765, Kabi) for factor Xa, <Glu-Pro-Arg-pNa (0.52 mM, S 2366, Kabi) for activated protein C, H-D-Pro-Phe-Arg-pNa (0.45 mM, S 2302, Kabi) for kallikrein, H-D-Ile-Pro-Arg-pNA (0.48 mM, S 2288, Kabi), <Glu-Gly-Arg-pNA (0.56 mM, S 2444, Kabi).
(§3) Inhibitors, enzymes and substrates are diluted in the same buffer ([…] buffer, pH 7.4, containing 0.12M sodium chloride and 0.05% of bovine serum albumin), and then distributed in a polystyrene microplate in a volume of […].
(§4) The fibrin formed by thrombin or by the para-nitroaniline liberated by the action of the serine protease is measured spectrophotometrically at 405 nm after 15 to 30 minutes of reaction at 20° C.

purified human urokinase = target: T2, purified human urokinase (Homo sapiens, UniProt P00749); assay: Inhibition of urokinase; assay type: biochemical; details: peptidyl para-nitroanilide substrate
T2 construct: purchased Sigma
Method: as §2, §3, §4

[3] = target: T3, purified human activated factor X (Homo sapiens, UniProt P00742); assay: Inhibition of activated factor X; assay type: biochemical; details: substrate S 2765
T3 construct: purchased Stago
Method: as §2, §3, §4

purified human plasmin = target: T4, purified human plasmin (Homo sapiens, UniProt P00747); assay: Inhibition of plasmin; assay type: biochemical; details: substrate S 2403
T4 construct: purified human plasmin (2 nM, Stago); purchased Stago
Method: as §2, §3, §4

[4] = target: T5, tissue plasminogen activator (Homo sapiens, UniProt P00750); assay: Inhibition of tissue plasminogen activator; assay type: biochemical; details: peptidyl para-nitroanilide substrate
T5 construct: purchased Calbiochem
Method: as §2, §3, §4

OFA rats [5] = assay: Anticoagulant activity ex vivo, intravenous administration, activated cephalin time; assay type: in vivo, rat; details: 0.5 mg/kg i.v.
Method: OFA rats, fasted or otherwise, are anesthetized with pentobarbital (60 mg/kg i.p.). The carotid artery and the jugular vein are exposed and catheterized. The catheters are flushed with citrated (1/40) physiological solution. After installation of the catheters, a sample of 1.5 cm^3 of arterial blood is withdrawn into 0.109M citrate (1/9).
30 minutes later, the test product is administered i.v. in a volume of 1 ml.
Arterial blood samples (1.5 ml) are then withdrawn at 1 minute 30 sec and 5, 15, 30 and 60 minutes.
As each sample is withdrawn, 1.5 ml of citrated physiological solution are reinjected into the animal via the carotid.
The blood tubes are centrifuged for 15 minutes at 3000 g (preparation of plasma). 100 μl of plasma are incubated with 100 gl of activated cephalin. The time of onset of the coagulation phenomenon is measured after adding 100 μl of calcium.
The compounds of the invention, tested at a dose of 0.5 mg/kg, increase the activated cephalin time (ACT) in a dose-dependent manner. […] The increase in ACT noted with the compounds of the invention is still significant 60 minutes after their administration. The results are reproduced in the following table, and show the factors by which the coagulation time is increased.

[6] = tested on: thrombin time of human platelet-poor plasma; assay: Anticoagulant activity: thrombin time in human plasma; assay type: biochemical; details: human plasma, 2 minutes at 37° C.
Method: (§5) In the presence of a standard quantity of thrombin, a normal plasma coagulates in a defined and constant time, termed the thrombin time (TT). Any prolongation of this time reflects an abnormality of fibrin formation (coagulation).
(§6) Sprague-Dawley rats are anesthetized with pentobarbital sodium (60 mg/kg i.p.), the carotid artery is catheterized and blood samples are taken into trisodium citrate solution (0.109M). A platelet-poor plasma is obtained by centrifugation of the blood samples (3000 g, 15 minutes). Samples of venous blood are also taken from humans at the bend of the arm. Anticoagulation of the samples and preparation of platelet-poor plasma are identical to those carried out with rat blood.
(§7) The thrombin time is obtained with Prest thrombin reagent and determined automatically using a coagulometer.
(§8) The antagonist or the solvent (10 μl) is added to the plasma (90 μl) and then incubated for 2 minutes at 37° C. 100 µl of thrombin are added as the chronometer is started.
(§9) Under these conditions, the TT values obtained in the control plasma are of the order of 30 seconds in rats and 20 seconds in humans. The activity of an antagonist is evaluated by its capacity to prolong this thrombin time relative to the control.
(§10) Under these conditions, the compounds of the invention permit a prolongation of the thrombin time of 50-fold and more. The effect of the inhibitors is measured, and the concentration which multiplies the thrombin time by 2 (CTT2) is determined.

[7] = target: T6, purified human plasma kallikrein (Homo sapiens, UniProt P03952); assay: Inhibition of plasma kallikrein; assay type: biochemical; details: substrate S 2302; read-out: IC50 Kalli
T6 construct: to purified human plasma kallikrein (2 nM, Calbiochem); purchased Calbiochem
Method: as §2, §3, §4

dogs [8] = assay: Anticoagulant activity p.o. in dogs, thrombin time; assay type: in vivo, dog; details: 2.5 mg/kg orally
Method: as §1

OFA rats [9] = assay: Anticoagulant activity ex vivo, intravenous administration, activated cephalin time; assay type: in vivo, rat; details: 0.5 mg/kg i.v., 15.5 min
[10] = tested on: thrombin time of rat platelet-poor plasma; assay: Anticoagulant activity: thrombin time in rat plasma; assay type: biochemical; details: rat plasma, 2 minutes at 37° C.
Method: as §5, §6, §7, §8, §9, §10

OFA rats [11] = assay: Anticoagulant activity ex vivo, oral administration (conscious rats), thrombin time; assay type: in vivo, rat; details: 10 mg/kg orally
Method: Fasted OFA rats are anesthetized with ether. The cordal artery is exposed and catheterized. The catheter is flushed with citrated (1/40) physiological solution. After installation of the catheter, the animal is placed in a restraining cage and 1.5 cm^3 of arterial blood are withdrawn into 0.109M citrate (1/9).
1 hour after the animal has awoken, the test products are administered orally at a single dose of 10 mg/kg.
Arterial blood samples (1.5 ml) are then withdrawn at 30 minutes, 60 minutes and 2 hours.
As each sample is withdrawn, 1.5 ml of physio-logical solution are reinjected into the animals.
The blood tubes are centrifuged for 15 minutes at 3000 g for preparation of the plasma. The time of onset of the coagulation phenomenon is measured after adding Prest thrombin.
The results are reproduced in the following table, and show the factors by which the thrombin time is increased.

T4 sequence (P00747 581-810 limits assumed): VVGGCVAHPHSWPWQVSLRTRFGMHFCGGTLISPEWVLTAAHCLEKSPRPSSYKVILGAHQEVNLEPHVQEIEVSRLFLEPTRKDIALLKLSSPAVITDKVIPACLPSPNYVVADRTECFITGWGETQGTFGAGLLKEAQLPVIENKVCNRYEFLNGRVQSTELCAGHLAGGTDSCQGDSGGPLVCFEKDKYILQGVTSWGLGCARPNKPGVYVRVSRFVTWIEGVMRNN
T4 sequence (P00747 97-580 limits assumed): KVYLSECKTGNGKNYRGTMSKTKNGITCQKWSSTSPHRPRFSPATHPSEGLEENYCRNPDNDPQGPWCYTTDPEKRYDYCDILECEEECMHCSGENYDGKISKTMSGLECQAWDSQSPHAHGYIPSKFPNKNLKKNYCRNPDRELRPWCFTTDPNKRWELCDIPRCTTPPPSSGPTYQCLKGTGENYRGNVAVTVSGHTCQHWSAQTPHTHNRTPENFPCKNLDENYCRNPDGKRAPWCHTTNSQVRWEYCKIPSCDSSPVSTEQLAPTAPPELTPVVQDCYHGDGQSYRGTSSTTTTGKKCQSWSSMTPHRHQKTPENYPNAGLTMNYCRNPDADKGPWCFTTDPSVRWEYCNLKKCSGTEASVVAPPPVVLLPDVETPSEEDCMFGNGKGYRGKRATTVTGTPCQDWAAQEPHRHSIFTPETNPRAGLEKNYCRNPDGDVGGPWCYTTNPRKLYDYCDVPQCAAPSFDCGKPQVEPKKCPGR
T1 sequence (P04070 212-461 limits assumed): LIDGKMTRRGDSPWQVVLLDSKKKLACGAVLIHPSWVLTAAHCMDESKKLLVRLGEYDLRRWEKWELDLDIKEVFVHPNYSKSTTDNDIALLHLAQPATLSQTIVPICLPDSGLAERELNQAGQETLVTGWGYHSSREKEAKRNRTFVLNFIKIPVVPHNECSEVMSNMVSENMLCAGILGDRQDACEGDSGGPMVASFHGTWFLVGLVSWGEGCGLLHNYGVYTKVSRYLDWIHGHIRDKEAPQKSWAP
T1 sequence (P04070 43-197 limits assumed): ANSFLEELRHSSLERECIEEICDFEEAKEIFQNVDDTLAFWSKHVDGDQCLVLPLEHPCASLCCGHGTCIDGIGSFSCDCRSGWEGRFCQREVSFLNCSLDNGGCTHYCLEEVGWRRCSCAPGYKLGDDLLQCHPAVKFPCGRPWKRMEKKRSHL
T3 sequence (P00742 235-488 limits assumed): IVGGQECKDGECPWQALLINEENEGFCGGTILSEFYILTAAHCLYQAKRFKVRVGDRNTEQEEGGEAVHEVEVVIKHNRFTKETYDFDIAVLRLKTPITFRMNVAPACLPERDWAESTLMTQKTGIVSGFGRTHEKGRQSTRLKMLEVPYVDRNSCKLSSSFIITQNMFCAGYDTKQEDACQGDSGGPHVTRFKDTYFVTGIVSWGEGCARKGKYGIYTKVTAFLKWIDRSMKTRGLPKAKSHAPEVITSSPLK
T3 sequence (P00742 41-179 limits assumed): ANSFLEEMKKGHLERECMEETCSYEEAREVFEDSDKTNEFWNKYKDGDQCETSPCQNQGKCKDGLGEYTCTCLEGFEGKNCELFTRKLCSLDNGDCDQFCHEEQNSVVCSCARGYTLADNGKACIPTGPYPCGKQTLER
T6 sequence (P03952 391-638 limits assumed): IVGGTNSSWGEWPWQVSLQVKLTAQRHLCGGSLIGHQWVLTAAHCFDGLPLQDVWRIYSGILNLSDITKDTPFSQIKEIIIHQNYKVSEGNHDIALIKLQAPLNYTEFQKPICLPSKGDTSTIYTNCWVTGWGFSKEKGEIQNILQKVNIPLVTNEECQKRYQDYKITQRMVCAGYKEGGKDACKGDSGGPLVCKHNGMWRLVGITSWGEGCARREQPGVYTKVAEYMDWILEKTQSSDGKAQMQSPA
T6 sequence (P03952 20-390 limits assumed): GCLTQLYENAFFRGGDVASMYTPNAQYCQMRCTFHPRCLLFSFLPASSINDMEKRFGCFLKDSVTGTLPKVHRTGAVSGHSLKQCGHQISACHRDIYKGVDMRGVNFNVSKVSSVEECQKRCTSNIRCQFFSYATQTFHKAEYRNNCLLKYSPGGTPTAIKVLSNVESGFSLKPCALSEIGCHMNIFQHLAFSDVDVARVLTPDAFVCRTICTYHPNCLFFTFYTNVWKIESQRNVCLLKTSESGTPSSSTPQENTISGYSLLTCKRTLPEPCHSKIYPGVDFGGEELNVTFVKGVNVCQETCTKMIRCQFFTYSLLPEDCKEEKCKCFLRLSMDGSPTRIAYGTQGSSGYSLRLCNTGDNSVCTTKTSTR
T5 sequence (P00750 36-562): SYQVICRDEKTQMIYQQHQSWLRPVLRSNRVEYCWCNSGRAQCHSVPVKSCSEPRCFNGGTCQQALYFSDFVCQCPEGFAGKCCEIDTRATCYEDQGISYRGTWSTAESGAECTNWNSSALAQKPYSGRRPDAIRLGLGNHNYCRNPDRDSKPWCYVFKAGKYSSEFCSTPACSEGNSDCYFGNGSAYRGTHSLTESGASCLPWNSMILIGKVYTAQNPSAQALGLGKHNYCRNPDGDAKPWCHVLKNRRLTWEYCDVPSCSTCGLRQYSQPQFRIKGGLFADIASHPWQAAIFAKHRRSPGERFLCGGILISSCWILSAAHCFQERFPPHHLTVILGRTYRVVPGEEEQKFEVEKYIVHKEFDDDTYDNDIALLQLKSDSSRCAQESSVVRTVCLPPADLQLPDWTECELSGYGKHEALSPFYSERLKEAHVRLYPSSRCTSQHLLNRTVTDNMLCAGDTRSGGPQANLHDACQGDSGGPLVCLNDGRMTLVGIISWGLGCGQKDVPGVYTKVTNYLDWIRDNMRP

CC(=O)N[C@H](Cc1ccccc1)C(=O)N1CCC[C@H]1C(=O)N[C@@H](CCCN=C(N)N)B(O)O [DUP 714, Ac-(D)Phe-Pro-Arg-boronic acid, reference compound]
thrombopenia (dogs [1]): marked thrombopenia
Change in platelet count (% of control) (dogs [1]; 2 hr): -32%
Change in platelet count (% of control) (dogs [1]; 4 hr): -16%
IC50 [2]: 17 nM
IC50 (purified human urokinase): 24 nM
IC50 [3]: 41 nM
IC50 (purified human plasmin): 28 nM
IC50 [4]: 8 nM
factor by which the coagulation time (ACT) is increased (OFA rats [5]; 5 min): 3.4
factor by which the coagulation time (ACT) is increased (OFA rats [5]; 15 min): 2.0
factor by which the coagulation time (ACT) is increased (OFA rats [5]; 30 min): 1.7
factor by which the coagulation time (ACT) is increased (OFA rats [5]; 60 min): 1.4
Man CTT2 (concentration which multiplies the thrombin time by 2) [6]: 0.18 µM
IC50 [7]: 8 nM
Increase factor TT (dogs [8]; 2 hr): 7
Increase factor TT (dogs [8]; 4 hr): 2
factor by which the coagulation time (ACT) is increased (OFA rats [9]): 7.6
Rat CTT2 (concentration which multiplies the thrombin time by 2) [10]: 0.32 µM
factor by which the thrombin time is increased (OFA rats [11]; 0.5 hours): 4.0
factor by which the thrombin time is increased (OFA rats [11]; 1 hour): 3.7
factor by which the thrombin time is increased (OFA rats [11]; 2 hours): 3.9
